Source: patent publication US20110045101A1, “FUNGICIDAL SUBSTITUTED AZOLES” (E.I. Du Pont De Nemours and Company, priority 2009, published 2011)
Marks after values point to notes of the source that are not given here.

Tests used:
Type in all cases: in vivo
[1] = tested on: Alternaria solani; assay: Test D: tomato early blight, sprayed the day before inoculation, visual disease rating; details: 100 = 100% disease control; for pest or weed control at 200 ppm: Alternaria solani, 168 h
How it was run: (§1)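 Compounds were dissolved in acetone (3% of final volume), then suspended in 50/50 acetone/purified water with 250 ppm Trem® 014 surfactant. Suspensions at 200 ppm (some at 40 ppm) were sprayed to run-off, 200 ppm being equivalent to 500 g/ha.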

[2] = tested on: Puccinia recondita f. sp. tritici; assay: Test H: wheat leaf rust, test suspension sprayed after inoculation of wheat seedlings, visual disease rating; details: 100 = 100% disease control; for pest or weed control at 200 ppm: Puccinia recondita, 96 h
How it was run: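 Wheat seedlings inoculated with P. recondita spores, held 24 h saturated at 20 °C, then 2 days in growth chamber at 20 °C; compound suspension (acetone/water with Trem 014) sprayed to run-off afterwards. Rated visually; 200 ppm (≈500 g/ha) unless marked *, which denotes 40 ppm.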

[3] = tested on: Botrytis cinerea; assay: Test C: tomato Botrytis on tomato seedlings, sprayed the day before inoculation, visual disease rating; details: 100 = 100% disease control; for pest or weed control at 200 ppm: Botrytis cinerea, 120 h
How it was run: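 Compounds were dissolved in acetone (3% of final volume), then suspended in 50/50 acetone/purified water containing 250 ppm polyhydric alcohol ester surfactant. Suspensions were sprayed to run-off on tomato seedlings at 200 ppm, equivalent to 500 g/ha, or at 40 ppm where marked.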

[4] = tested on: Puccinia recondita f. sp. tritici; assay: Test I: wheat leaf rust on wheat seedlings, sprayed the day before inoculation, visual disease rating; details: 100 = 100% disease control; for pest or weed control at 200 ppm: Puccinia recondita, 168 h
How it was run: as §1

[5] = tested on: Erysiphe graminis f. sp. tritici; assay: Test J: wheat powdery mildew on wheat seedlings, sprayed the day before inoculation, visual disease rating; details: 100 = 100% disease control; for pest or weed control at 200 ppm: Blumeria graminis, 168 h
How it was run: as §1

[6] = tested on: Septoria tritici; assay: Test G: wheat leaf blotch on wheat seedlings, sprayed the day before inoculation, visual disease rating; details: 100 = 100% disease control; for pest or weed control at 200 ppm: Zymoseptoria tritici, 504 h
How it was run: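 Wheat seedlings were sprayed to run-off with test suspension (acetone/water plus surfactant), generally 200 ppm (≈500 g/ha), or 40 ppm where marked. Septoria tritici spores were inoculated the next day; plants were held 48 h at 24°C in saturated atmosphere, then 19 days at 20°C before visual disease rating.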

[7] = tested on: Septoria nodorum; assay: Test F: wheat glume blotch on wheat seedlings, sprayed the day before inoculation, visual disease rating; details: 100 = 100% disease control; for pest or weed control at 200 ppm: Parastagonospora nodorum, 264 h
How it was run: as §1

[8] = 200 ppm, 0 = no control relative to controls

Compound | Test D disease control rating [1, 8] [%] | Test H disease control rating [2, 8] [%] | Test C disease control rating [3, 8] [%] | Test I disease control rating [4, 8] [%] | Test J disease control rating [5, 8] [%] | Test G disease control rating [6, 8] [%] | Test F disease control rating [7, 8] [%] | other results
COc1cc(F)c(-c2c(Cl)nc(CF)n2-c2ccc(F)cc2)c(F)c1 [Compound 331, 4-chloro-5-(2,6-difluoro-4-methoxyphenyl)-2-(fluoromethyl)-1-(4-fluorophenyl)-1H-imidazole] |  |  |  |  |  |  |  | pest or weed control at 200 ppm [1, 8]: 100%; pest or weed control at 200 ppm [2, 8]: 85%; pest or weed control at 200 ppm [3, 8]: 100%; pest or weed control at 200 ppm [4, 8]: 100%; pest or weed control at 200 ppm [5, 8]: 100%; pest or weed control at 200 ppm [6, 8]: 95%; pest or weed control at 200 ppm [7, 8]: 99%
Fc1ccc(-n2c(Br)nc(Cl)c2-c2ccc(Cl)c(F)c2)c(Cl)c1 [compound 328] | 98 | 9 | 100 | 94 | 98 | 95 | 0 | 
Fc1ccc(-n2c(Br)nc(Cl)c2-c2ccc(Cl)cc2)c(Cl)c1 [compound 329] | 99 | 0 | 99 | 90 | 99 | 94 | 0 | 
Cc1nc(Cl)n(-c2ccc(F)cc2Cl)c1-c1ccc(Cl)c(F)c1 [compound 573] | 100 | 22 | 100 | 100 | 99 | 96 | 0 | 
COc1cc(F)c(-c2c(Cl)nc(Cl)n2Cc2ccc(Cl)nc2)c(F)c1Cl [compound 668] | 99 | 0 | 100 | 85 | 96 | 99 | 91 | 
Cc1nc(Cl)c(-c2ccc(Cl)c(F)c2)n1-c1ccc(F)cc1Cl [compound 421] | 98 | 0 | 100 | 100 | 100 | 100 | 0 | 
COc1cc(OC)cc(-n2c(Cc3c(F)cc(F)cc3F)cnc2C)c1 [compound 533] | 0 | 15 | 0 | 92 | 82 | 49 | 0 | 
COc1cc(F)c(-c2c(Cl)nc(Cl)n2-c2ccc(C)c(I)c2)c(F)c1 [compound 647] |  |  |  |  |  | 95 |  | Test D disease control rating ([1]; 40 ppm (marked *)): 0* %; Test H disease control rating ([2]; 40 ppm (marked *)): 0* %; Test C disease control rating ([3]; 40 ppm (marked *)): 0* %; Test I disease control rating ([4]; 40 ppm (marked *)): 0* %; Test J disease control rating ([5]; 40 ppm (marked *)): 69* %; Test F disease control rating ([7]; 40 ppm (marked *)): 0* %
Fc1cccc(-n2cnc(Cl)c2-c2c(F)ccc(F)c2F)c1 [compound 364] | 100 | 0 | 100 | 98 | 83 | 58 | 0 | 
Cc1cccc(-c2c(CCl)nc(Cl)n2-c2ccc(Cl)c(F)c2)n1 [compound 379] | 0 | 0 | 99 | 27 | 0 | 86 | 0 | 
COc1cc(F)c(-c2c(Cl)nc(Cl)n2-c2ccc(C(F)(F)F)nc2)c(F)c1 [compound 488] | 100 | 41 | 99 | 100 | 100 | 93 | 100 | 
Fc1cc(F)c(-c2c(Cl)nc(Br)n2-c2ccc(OC(F)F)cc2)c(F)c1 [compound 604] | 100 | 97 | 99 | 100 | 100 | 99 | 100 | 
Fc1cc(-n2c(Cl)nc(CCl)c2-c2ccnc(Br)c2)ccc1Cl [compound 353] | 0 | 0 | 0 | 41 | 0 | 8 | 0 | 
COc1ccc(F)c(-c2c(Br)nc(Br)n2-c2ccc(C)cc2)c1F [compound 511] | 99 | 0 | 99 | 99 | 100 | 99 | 99 | 
CN(C)c1ncn(Cc2cccc(Cl)c2)c1-c1ccc(Cl)cc1 [compound 273] |  |  |  |  |  |  |  | Test D disease control rating ([1]; 200 ppm, 0 = no control): 0%; Test H disease control rating ([2]; 200 ppm, 0 = no control): 46%; Test C disease control rating ([3]; 200 ppm, 0 = no control): 63%; Test I disease control rating ([4]; 200 ppm, 0 = no control): 41%; Test J disease control rating ([5]; 200 ppm, 0 = no control): 0%; Test G disease control rating ([6]; 200 ppm, 0 = no control): 13%; Test F disease control rating ([7]; 200 ppm, 0 = no control): 0%
Cc1nc(Br)n(-c2ccc(F)cc2Cl)c1-c1ccc(Cl)c(F)c1 [compound 325] | 91 | 0 | 94 | 97 | 99 | 96 | 51 | 
Cc1ccc(-n2c(Br)nc(Br)c2-c2c(F)ccc(F)c2Cl)cc1 [compound 460] |  |  |  |  |  |  |  | Test D disease control rating ([1]; 40 ppm (marked *)): 85* %; Test H disease control rating ([2]; 40 ppm (marked *)): 0* %; Test C disease control rating ([3]; 40 ppm (marked *)): 99* %; Test I disease control rating ([4]; 40 ppm (marked *)): 93* %; Test J disease control rating ([5]; 40 ppm (marked *)): 96* %; Test G disease control rating ([6]; 40 ppm (marked *)): 97* %; Test F disease control rating ([7]; 40 ppm (marked *)): 0* %
Cc1ncn(-c2ccc(Cl)c(F)c2)c1-c1cncc(Br)c1 [compound 346] | 0 | 9 | 99 | 9 | 0 | 38 | 0 | 
N#CCc1nc(Br)c(-c2c(F)cccc2F)n1-c1ccc(Cl)cc1 [Compound 509, 4-bromo-1-(4-chlorophenyl)-5-(2,6-difluorophenyl)-1H-imidazole-2-acetonitrile] |  |  |  |  |  |  |  | pest or weed control at 200 ppm [1, 8]: 77%; pest or weed control at 200 ppm [2, 8]: 9%; pest or weed control at 200 ppm [3, 8]: 98%; pest or weed control at 200 ppm [4, 8]: 85%; pest or weed control at 200 ppm [5, 8]: 78%; pest or weed control at 200 ppm [6, 8]: 92%; pest or weed control at 200 ppm [7, 8]: 0%
COc1cc(F)c(-c2c(Cl)nc(C=NO)n2-c2ccc(F)cc2)c(F)c1 [Compound 349, 4-chloro-5-(2,6-difluoro-4-methoxyphenyl)-1-(4-fluorophenyl)-1H-imidazole-2-carboxaldehyde oxime] |  |  |  |  |  |  |  | pest or weed control at 200 ppm [1, 8]: 99%; pest or weed control at 200 ppm [2, 8]: 0%; pest or weed control at 200 ppm [3, 8]: 100%; pest or weed control at 200 ppm [4, 8]: 99%; pest or weed control at 200 ppm [5, 8]: 95%; pest or weed control at 200 ppm [6, 8]: 88%; pest or weed control at 200 ppm [7, 8]: 99%
COc1cc(F)c(-c2c(Br)nc(Br)n2-c2ccc(C)nc2)c(F)c1 [compound 554] | 100 | 100 | 100 | 100 | 100 | 99 | 100 | 
COc1cc(F)c(-c2c(Br)nc(Cl)n2-c2ccc(C(F)(F)F)nc2)c(F)c1 [compound 706] | 100 | 25 | 57 | 86 | 100 | 99 | 0 | 
Fc1ccc(F)c(-c2c(Br)nc(Cl)n2-c2ccc(Cl)cc2)c1F [compound 351] | 100 | 54 | 100 | 100 | 100 | 93 | 99 | 
